From patent US5595730A, “Lactate dehydrogenase inhibitors in cosmetic compositions” (priority 1996, dated 1997)
Where two headings read alike, the source gives them in different places. Blank lines part the entries; values can stand above or below the compound they belong to.

Tests used:
procollagen 1 = test: Assay for collagen synthesis (secreted procollagen 1 immunoassay, fibroblasts); conditions: actives 0.2 to 20 mM, serum-free medium, 48 hours
Method: Neonatal human dermal fibroblasts were purchased from Clonetics Corp., San Diego, Calif. All materials for cell culture were purchased from Life Technologies, N.Y. Cells were maintained in DMEM with 10% fetal bovine serum and used in passages 5-10. Confluent 96-well plates containing fibroblasts were treated with actives (0.2 to 20 mM) in serum-free medium for 48 hours. […] This was carried out in a BioDot SF apparatus according to the manufacturer's instructions (BioRad Labs, CA) and the blot was developed using a Vectastain Kit (PK6104, Vector Labs, CA) as per the manufacturer's directions. Color intensity was quantitated using an Ultroscan XL densitometer (Pharmacia LKB). Fold increase was calculated as (density of treated)/untreated.

[1] = system: Normal human epidermal keratinocytes (NHEK); test: Keratinocyte proliferation (DNA content, fluorometric); assay type: cell-based; conditions: for activation at 70 µM: 0.07 mM
Method: Normal human epidermal keratinocytes (NHEK) derived from neonatal foreskin were used for all experiments. Media were purchased from Clonetics Corp., San Diego, Calif. Cell stocks frozen in passage 2 were grown in Keratinocyte Growth Medium (KGM) and passaged when 70-80% confluent. Cells were seeded in 96 well plates (Corning) at a density of 7500 cells/well in KGM. After 24 hours, cells were rinsed and dosed with test compounds in 200 μl of Keratinocyte Basal Medium (KBM). Plates were incubated for three days at 37° C., 5% CO2. Cell proliferation was estimated by assaying for DNA content by a fluorometric method described by Rago et al. (Analytical Biochemistry, 191:31-34, 1990). Medium was removed and cells were rinsed with phosphate buffered saline solution. 100 μl of sterile distilled water was added to each well and plates were frozen at -70° C. for one and a half hours. Plates were thawed for one hour at which time 100 μl of a 20 ug/ml solution of Bisbenzimide H33258 fluorochrome (Calbiochem Corp., La Jolla, Calif.) was added to each well. The fluorochrome was prepared just prior to use in 10 mM Tris, 1 mM EDTA, 4M NaCI, pH 7.4. Plates were read in a Millipore Cytofluor fluorescent plate reader to quantify DNA (excitation 360 nm, emission 460 nm). Percent increase over control was calculated from blank-corrected readings as (treated-untreated)/(untreated)*100. Each data point in the Tables below represents a mean of 5 or 6 replicates.
The procedure of Example 2 was repeated except that various co-active ingredients were tested for their ability to stimulate keratinocyte proliferation.
The procedure of Example 2 was repeated to test the effect of combination of an LDH inhibitor with another carboxylic acid on keratinocyte proliferation.

SMILES: O=C(O)CC(=O)C(=O)O [Oxaloacetate]
Collagen Synthesis, Maximum fold over Control (procollagen 1): 3.0 fold
activation at 2 µM ([1]; Homo sapiens, NHEK, 72 h, read-out: Keratinocyte Proliferation (% increase over Control), Table 5, Test A, 0.002 mM): 11%
activation at 20 µM ([1]; Homo sapiens, NHEK, 72 h, read-out: Keratinocyte Proliferation (% increase over Control), Table 5, Test A, 0.02 mM): 15%
activation at 200 µM ([1]; Homo sapiens, NHEK, 72 h, read-out: Keratinocyte Proliferation (% increase over Control), Table 5, Test A, 0.2 mM): 22%
activation at 2000 µM ([1]; Homo sapiens, NHEK, 72 h, read-out: Keratinocyte Proliferation (% increase over Control), Table 5, Test A, 2.0 mM): 53%
activation at 10000 µM ([1]; Homo sapiens, NHEK, 72 h, read-out: Keratinocyte Proliferation (% increase over Control), Table 5, Test A, 10 mM): 110%
activation at 20 µM ([1]; Homo sapiens, NHEK, 72 h, read-out: Keratinocyte Proliferation (% increase over Control), Table 5, Test B, 0.02 mM): 30%
activation at 200 µM ([1]; Homo sapiens, NHEK, 72 h, read-out: Keratinocyte Proliferation (% increase over Control), Table 5, Test B, 0.2 mM): 20%
activation at 2000 µM ([1]; Homo sapiens, NHEK, 72 h, read-out: Keratinocyte Proliferation (% increase over Control), Table 5, Test B, 2.0 mM): 16%
activation at 10000 µM ([1]; Homo sapiens, NHEK, 72 h, read-out: Keratinocyte Proliferation (% increase over Control), Table 5, Test B, 10 mM): 70%
activation at 20000 µM ([1]; Homo sapiens, NHEK, 72 h, read-out: Keratinocyte Proliferation (% increase over Control), Table 5, Test B, 20 mM): 44%
activation at 150 µM ([1]; Homo sapiens, NHEK, 72 h, read-out: Keratinocyte Proliferation (% increase over Control), Table 5, Test C, 0.15 mM): 13%
activation at 300 µM ([1]; Homo sapiens, NHEK, 72 h, read-out: Keratinocyte Proliferation (% increase over Control), Table 5, Test C, 0.3 mM): 18%
activation at 600 µM ([1]; Homo sapiens, NHEK, 72 h, read-out: Keratinocyte Proliferation (% increase over Control), Table 5, Test C, 0.6 mM): 20%
activation at 1250 µM ([1]; Homo sapiens, NHEK, 72 h, read-out: Keratinocyte Proliferation (% increase over Control), Table 5, Test C, 1.25 mM): 18%
activation at 2500 µM ([1]; Homo sapiens, NHEK, 72 h, read-out: Keratinocyte Proliferation (% increase over Control), Table 5, Test C, 2.5 mM): 40%
activation at 5000 µM ([1]; Homo sapiens, NHEK, 72 h, read-out: Keratinocyte Proliferation (% increase over Control), Table 5, Test C, 5.0 mM): 35%
activation at 10000 µM ([1]; Homo sapiens, NHEK, 72 h, read-out: Keratinocyte Proliferation (% increase over Control), Table 5, Test C, 10 mM): 0%
activation at 80 µM ([1]; Homo sapiens, NHEK, 72 h, read-out: Keratinocyte Proliferation (% increase over Control), Table 5, Test D, 0.08 mM): 56%
activation at 150 µM ([1]; Homo sapiens, NHEK, 72 h, read-out: Keratinocyte Proliferation (% increase over Control), Table 5, Test D, 0.15 mM): 76%
activation at 300 µM ([1]; Homo sapiens, NHEK, 72 h, read-out: Keratinocyte Proliferation (% increase over Control), Table 5, Test D, 0.3 mM): 63%
activation at 600 µM ([1]; Homo sapiens, NHEK, 72 h, read-out: Keratinocyte Proliferation (% increase over Control), Table 5, Test D, 0.6 mM): 48%
activation at 1250 µM ([1]; Homo sapiens, NHEK, 72 h, read-out: Keratinocyte Proliferation (% increase over Control), Table 5, Test D, 1.25 mM): 37%
activation at 2500 µM ([1]; Homo sapiens, NHEK, 72 h, read-out: Keratinocyte Proliferation (% increase over Control), Table 5, Test D, 2.5 mM): 37%
activation at 5000 µM ([1]; Homo sapiens, NHEK, 72 h, read-out: Keratinocyte Proliferation (% increase over Control), Table 5, Test D, 5.0 mM): 52%
activation at 10000 µM ([1]; Homo sapiens, NHEK, 72 h, read-out: Keratinocyte Proliferation (% increase over Control), Table 5, Test D, 10 mM): 52%

Collagen Synthesis, Maximum fold over Control (procollagen 1): 2.8 fold
SMILES: O=C(O)CCC(=O)O [Succinate]
Keratinocyte proliferation, % Increase Over Control ([1]; Table 8, single agent alone, 0.156 mM): 48%
Keratinocyte proliferation, % Increase Over Control ([1]; Table 8, single agent alone, 0.313 mM): 48%
Keratinocyte proliferation, % Increase Over Control ([1]; Table 8, single agent alone, 0.625 mM): 39%
Keratinocyte proliferation, % Increase Over Control ([1]; Table 8, single agent alone, 1.25 mM): 51%
Keratinocyte proliferation, % Increase Over Control ([1]; Table 8, single agent alone, 2.5 mM): 58%
Keratinocyte proliferation, % Increase Over Control ([1]; Table 8, single agent alone, 5.0 mM): 0%

Collagen Synthesis, Maximum fold over Control (procollagen 1): 2.0 fold
SMILES: CC(=O)O [Acetate]
activation at 2 µM ([1]; Homo sapiens, NHEK, 72 h, Table 4, Test A, 0.002 mM, read-out: Keratinocyte Proliferation (% increase over control)): 22%
activation at 20 µM ([1]; Homo sapiens, NHEK, 72 h, Table 4, Test A, 0.02 mM, read-out: Keratinocyte Proliferation (% increase over control)): 31%
activation at 200 µM ([1]; Homo sapiens, NHEK, 72 h, Table 4, Test A, 0.2 mM, read-out: Keratinocyte Proliferation (% increase over control)): 43%
activation at 2000 µM ([1]; Homo sapiens, NHEK, 72 h, Table 4, Test A, 2.0 mM, read-out: Keratinocyte Proliferation (% increase over control)): 46%
activation at 10000 µM ([1]; Homo sapiens, NHEK, 72 h, Table 4, Test A, 10 mM, read-out: Keratinocyte Proliferation (% increase over control)): 63%
activation at 200 µM ([1]; Homo sapiens, NHEK, 72 h, Table 4, Test B, 0.2 mM, read-out: Keratinocyte Proliferation (% increase over control)): 12%
activation at 2000 µM ([1]; Homo sapiens, NHEK, 72 h, Table 4, Test B, 2.0 mM, read-out: Keratinocyte Proliferation (% increase over control)): 19%
activation at 10000 µM ([1]; Homo sapiens, NHEK, 72 h, Table 4, Test B, 10 mM, read-out: Keratinocyte Proliferation (% increase over control)): 0%
activation at 20000 µM ([1]; Homo sapiens, NHEK, 72 h, Table 4, Test B, 20 mM, read-out: Keratinocyte Proliferation (% increase over control)): 0%
activation at 156 µM ([1]; Homo sapiens, NHEK, 72 h, Table 4, Test C, 0.156 mM, read-out: Keratinocyte Proliferation (% increase over control)): 13%
activation at 313 µM ([1]; Homo sapiens, NHEK, 72 h, Table 4, Test C, 0.313 mM, read-out: Keratinocyte Proliferation (% increase over control)): 32%
activation at 625 µM ([1]; Homo sapiens, NHEK, 72 h, Table 4, Test C, 0.625 mM, read-out: Keratinocyte Proliferation (% increase over control)): 9%
activation at 1250 µM ([1]; Homo sapiens, NHEK, 72 h, Table 4, Test C, 1.25 mM, read-out: Keratinocyte Proliferation (% increase over control)): 2%
activation at 2500 µM ([1]; Homo sapiens, NHEK, 72 h, Table 4, Test C, 2.5 mM, read-out: Keratinocyte Proliferation (% increase over control)): 11%
activation at 5000 µM ([1]; Homo sapiens, NHEK, 72 h, Table 4, Test C, 5.0 mM, read-out: Keratinocyte Proliferation (% increase over control)): 0%
activation at 10000 µM ([1]; Homo sapiens, NHEK, 72 h, Table 4, Test C, 10 mM, read-out: Keratinocyte Proliferation (% increase over control)): 0%
activation at 70 µM ([1]; Homo sapiens, NHEK, 72 h, Table 4, Test D, read-out: Keratinocyte Proliferation (% increase over control)): 50%
activation at 156 µM ([1]; Homo sapiens, NHEK, 72 h, Table 4, Test D, 0.156 mM, read-out: Keratinocyte Proliferation (% increase over control)): 47%
activation at 313 µM ([1]; Homo sapiens, NHEK, 72 h, Table 4, Test D, 0.313 mM, read-out: Keratinocyte Proliferation (% increase over control)): 56%
activation at 625 µM ([1]; Homo sapiens, NHEK, 72 h, Table 4, Test D, 0.625 mM, read-out: Keratinocyte Proliferation (% increase over control)): 57%
activation at 1250 µM ([1]; Homo sapiens, NHEK, 72 h, Table 4, Test D, 1.25 mM, read-out: Keratinocyte Proliferation (% increase over control)): 42%
activation at 2500 µM ([1]; Homo sapiens, NHEK, 72 h, Table 4, Test D, 2.5 mM, read-out: Keratinocyte Proliferation (% increase over control)): 44%
activation at 5000 µM ([1]; Homo sapiens, NHEK, 72 h, Table 4, Test D, 5.0 mM, read-out: Keratinocyte Proliferation (% increase over control)): 18%
activation at 70 µM ([1]; Homo sapiens, NHEK, 72 h, Table 4, Test E, read-out: Keratinocyte Proliferation (% increase over control)): 0%
activation at 156 µM ([1]; Homo sapiens, NHEK, 72 h, Table 4, Test E, 0.156 mM, read-out: Keratinocyte Proliferation (% increase over control)): 6%
activation at 313 µM ([1]; Homo sapiens, NHEK, 72 h, Table 4, Test E, 0.313 mM, read-out: Keratinocyte Proliferation (% increase over control)): 24%
activation at 313 µM ([1]; Homo sapiens, NHEK, 72 h, Table 4, Test F, 0.313 mM, read-out: Keratinocyte Proliferation (% increase over control)): 5%
activation at 625 µM ([1]; Homo sapiens, NHEK, 72 h, Table 4, Test F, 0.625 mM, read-out: Keratinocyte Proliferation (% increase over control)): 34%
activation at 1250 µM ([1]; Homo sapiens, NHEK, 72 h, Table 4, Test F, 1.25 mM, read-out: Keratinocyte Proliferation (% increase over control)): 35%
activation at 2500 µM ([1]; Homo sapiens, NHEK, 72 h, Table 4, Test F, 2.5 mM, read-out: Keratinocyte Proliferation (% increase over control)): 33%
activation at 5000 µM ([1]; Homo sapiens, NHEK, 72 h, Table 4, Test F, 5.0 mM, read-out: Keratinocyte Proliferation (% increase over control)): 7%
activation at 10000 µM ([1]; Homo sapiens, NHEK, 72 h, Table 4, Test F, 10 mM, read-out: Keratinocyte Proliferation (% increase over control)): 0%
activation at 313 µM ([1]; Homo sapiens, NHEK, 72 h, Table 4, Test G, 0.313 mM, read-out: Keratinocyte Proliferation (% increase over control)): 38%
activation at 625 µM ([1]; Homo sapiens, NHEK, 72 h, Table 4, Test G, 0.625 mM, read-out: Keratinocyte Proliferation (% increase over control)): 11%
activation at 1250 µM ([1]; Homo sapiens, NHEK, 72 h, Table 4, Test G, 1.25 mM, read-out: Keratinocyte Proliferation (% increase over control)): 24%
activation at 2500 µM ([1]; Homo sapiens, NHEK, 72 h, Table 4, Test G, 2.5 mM, read-out: Keratinocyte Proliferation (% increase over control)): 12%
activation at 5000 µM ([1]; Homo sapiens, NHEK, 72 h, Table 4, Test G, 5.0 mM, read-out: Keratinocyte Proliferation (% increase over control)): 18%
activation at 10000 µM ([1]; Homo sapiens, NHEK, 72 h, Table 4, Test G, 10 mM, read-out: Keratinocyte Proliferation (% increase over control)): 0%
Keratinocyte proliferation, % Increase Over Control ([1]; Table 7, single agent alone, 0.156 mM): 41%
Keratinocyte proliferation, % Increase Over Control ([1]; Table 7, single agent alone, 0.313 mM): 28%
Keratinocyte proliferation, % Increase Over Control ([1]; Table 7, single agent alone, 0.625 mM): 55%
Keratinocyte proliferation, % Increase Over Control ([1]; Table 7, single agent alone, 1.25 mM): 55%
Keratinocyte proliferation, % Increase Over Control ([1]; Table 7, single agent alone, 2.5 mM): 18%
Keratinocyte proliferation, % Increase Over Control ([1]; Table 7, single agent alone, 5.0 mM): 0%
